US11041181B2, “Promoter and method for producing purine nucleotide using the same” (CJ CHEILJEDANG CORPORATION, priority 2019, dated 2021)

Key:
CJI2332 = assay type: cell-based, Corynebacterium stationis
Procedure: (§1) To prepare an IMP-producing strain derived from the ATCC6872 strain, the culture of ATCC6872 was suspended in a phosphate buffer (pH 7.0) or citrate buffer (pH 5.5) at a density of 10^7 cells/mL to 10^8 cells/mL and treated with UV at room temperature or 32° C. for 20 min to 40 min to induce a mutation. The strain was washed with a 0.85% saline solution twice and spread, after dilution, on a minimal medium containing 1.7% agar which was supplemented with a resistance-providing material at an appropriate concentration, and thereby colonies were obtained. Each colony was cultured in a nutrient medium and then cultured in a seed culture medium for 24 hours. […] To prepare a strain producing IMP at high concentration, adenine-auxotroph, guanine-leaky type, lysozyme sensitivity, 3,4-dehydroproline resistance, streptomycin resistance, sulfaguanidine resistance, norvaline resistance, and trimethoprim resistance were provided by performing the corresponding procedures in a sequential manner. As a result, the CJI2332 strain provided with resistance to the above materials and having excellent IMP productivity was finally selected.
(§2) Minimal medium: 2% glucose, 0.3% sodium sulfate, 0.1% monopotassium phosphate, 0.3% dipotassium phosphate, 0.3% magnesium sulfate, 10 mg/L calcium chloride, 10 mg/L iron sulfate, 1 mg/L zinc sulfate, 3.6 mg/L manganese chloride, 20 mg/L L-cysteine, 10 mg/L calcium pantothenate, 5 mg/L thiamine hydrochloride, 30 μg/L biotin, 20 mg/L adenine, 20 mg/L guanine, adjusted to pH 7.3.

ATCC6872 = assay: Resistance/sensitivity characteristics of strain on minimal medium with resistance-providing material; assay type: cell-based, Corynebacterium stationis
Procedure: as §1, §2

Row | Molecule | resistance (CJI2332) | resistance (ATCC6872) | also measured
1 | O=C(O)C1C=CCN1 (stereo not drawn) [3,4-Dehydroproline] | 3,500 μg/mL | 1,000 μg/mL | –
2 | CCC[C@H](N)C(=O)O [Norvaline] | – | – | Norvaline resistance (CJI2332): 2 mg/mL; Norvaline resistance (ATCC6872): 0.2 mg/mL
3 | [H]/N=C(/N)N[C@H]1[C@H](O)[C@@H](O)[C@H](O[C@@H]2O[C@@H](C)[C@](O)(C=O)[C@H]2O[C@@H]2O[C@@H](CO)[C@H](O)[C@@H](O)[C@@H]2NC)[C@@H](N/C(N)=N\[H])[C@@H]1O [Streptomycin] | 2,000 μg/mL | 500 µg/mL | –
4 | [H]/N=C(/N)NS(=O)(=O)c1ccc(N)cc1 [Sulfaguanidine] | 200 µg/mL | 50 µg/mL | –
5 | COc1cc(Cc2cnc(N)nc2N)cc(OC)c1OC [Trimethoprim] | 100 µg/mL | 20 µg/mL | –
6 | Lysozyme | – | – | Lysozyme sensitivity (CJI2332): 8 µg/mL; Lysozyme sensitivity (ATCC6872): 80 µg/mL
